# Patent US11952369B2 (Kadmon Corporation, LLC, priority 2022, dated 2024)
# Like-named read-outs stand apart in the source and are kept apart here.
# Assays:
# [1] = Solubility; type: physicochemical; conditions: in vitro assessments
# [2] = target: cytochrome P450 CYP3A4 (Homo sapiens, UniProt P08684); experiment: In vitro assessments of belumosudil metabolism; type: in vitro ADME
# [3] = Phase 1 study: safety assessments; type: in vivo, human
# Protocol: Safety was assessed throughout the study by AEs, vital signs, electrocardiograms, physical examinations, and clinical laboratory tests. The safety population included all subjects who received at least 1 dose of the study drug (oral or IV) in either part of the study.
# [4] = Phase 1 study part 2: metabolite identification and profiling in plasma, urine and feces; type: in vivo, human; conditions: mean across subjects
# Protocol: To determine the most appropriate sampling pools for metabolite identification/profiling, plasma, urine, and fecal samples were pooled based on mass balance data obtained as described above. Plasma samples were pooled for individual subjects by time points that represented at least 80% of the plasma total radioactivity, as well as pooled across subjects before dosing and at 4-hour and 8-hour time points. Urine samples were pooled from 0 to 24 hours for individual subjects and across subjects for predose and 0- to 6-hour intervals. Fecal samples were pooled for individual subjects depending on time points that represented at least 80% of the […] total radioactivity and across subjects at 0- to 24- and 24- to 48-hour intervals.
# [^14C]-belumosudil concentrations were quantified by LC-MS/MS. Chemical structures were then identified for those radioactive components that accounted for >10% of circulating radioactivity in plasma and >10% of the dose in urine and feces. Radioactive components that represented <10% of circulating radioactivity in plasma and <10% of the dose in urine and feces were also identified. Metabolite identification was then performed using accurate mass positive and negative ion full scan and positive ion product ion analyses. […] Any identified components were compared with [^14C] radiochromatograms to identify the metabolite. Predose plasma and urine pools were used to correct for endogenous components during metabolite identification.
# [5] = Phase 1 study part 1: absolute bioavailability, oral 200-mg tablet plus [14C]-belumosudil IV microtracer, plasma PK; type: in vivo, human; conditions: for F, AUCinf (absolute bioavailability, AUCinf,oral/AUCinf,IV): dose-adjusted
# Protocol: This was a single-center, nonrandomized, open-label, 2-part study in 5 healthy male subjects aged 30 to 65 years. All oral doses were administered following an overnight fast and a standard breakfast on the day of dosing.
# (timed to occur at the expected maximum concentration [Cmax]). To determine absolute bioavailability, a microtracer dose was chosen as it negates the need for an IV formulation with good stability. Additionally, due to use of a very low dose, further nonclinical studies such as local tolerance and general toxicology studies were not warranted.
# Blood samples for IV [^14C]-belumosudil PK analysis and total radioactivity were collected at −0.25, −0.16, −0.08, 0, 0.08, 0.16, 0.25, 0.5, 0.75, 1, 1.5, 2, 3, 4, 5, 6, 8, 10, 12, 22, 34, and 46 hours after the end of infusion (EOI). All samples were processed to plasma within 30 minutes of collection by centrifugation at 2000 g for 10 minutes at 4° C., and
# Total [^14C]-belumosudil concentrations were determined by accelerator mass spectrometry (AMS). […] Selected samples were diluted with commercial plasma to ensure that concentrations would fall within the acceptable range for AMS analysis. The samples were converted to graphite through combustion to CO2 followed by reduction to graphite. The graphite targets were then analyzed by AMS (LLOQ of 0.00489, 0.00557, 0.00485, 0.00402, and 0.00372 ng equiv/mL for individual subjects). All ^14C data was background-corrected based on predose [^14C]-belumosudil concentrations.
# Eluate fractions corresponding to [^14C]-belumosudil were collected before AMS analysis (LLOQ of 1.55 pg equiv/mL).
# PK parameter estimates were used to calculate absolute bioavailability and metabolite-to-parent ratio.
# [6] = target: T1, ROCK2 (Rattus norvegicus, UniProt Q62868); experiment: Inhibition of ROCK2 enzymatic activity, immunoabsorbed full length enzyme, S6 kinase substrate peptide, [γ33P]ATP; type: biochemical; conditions: for Ki: ROCK2
# T1 construct: Full length rat ROCK1 and ROCK2 proteins were isolated from various tumor cell lines or tissues by immunoabsorption; endogenous in cells
# T1 sequence (Q62868 whole entry): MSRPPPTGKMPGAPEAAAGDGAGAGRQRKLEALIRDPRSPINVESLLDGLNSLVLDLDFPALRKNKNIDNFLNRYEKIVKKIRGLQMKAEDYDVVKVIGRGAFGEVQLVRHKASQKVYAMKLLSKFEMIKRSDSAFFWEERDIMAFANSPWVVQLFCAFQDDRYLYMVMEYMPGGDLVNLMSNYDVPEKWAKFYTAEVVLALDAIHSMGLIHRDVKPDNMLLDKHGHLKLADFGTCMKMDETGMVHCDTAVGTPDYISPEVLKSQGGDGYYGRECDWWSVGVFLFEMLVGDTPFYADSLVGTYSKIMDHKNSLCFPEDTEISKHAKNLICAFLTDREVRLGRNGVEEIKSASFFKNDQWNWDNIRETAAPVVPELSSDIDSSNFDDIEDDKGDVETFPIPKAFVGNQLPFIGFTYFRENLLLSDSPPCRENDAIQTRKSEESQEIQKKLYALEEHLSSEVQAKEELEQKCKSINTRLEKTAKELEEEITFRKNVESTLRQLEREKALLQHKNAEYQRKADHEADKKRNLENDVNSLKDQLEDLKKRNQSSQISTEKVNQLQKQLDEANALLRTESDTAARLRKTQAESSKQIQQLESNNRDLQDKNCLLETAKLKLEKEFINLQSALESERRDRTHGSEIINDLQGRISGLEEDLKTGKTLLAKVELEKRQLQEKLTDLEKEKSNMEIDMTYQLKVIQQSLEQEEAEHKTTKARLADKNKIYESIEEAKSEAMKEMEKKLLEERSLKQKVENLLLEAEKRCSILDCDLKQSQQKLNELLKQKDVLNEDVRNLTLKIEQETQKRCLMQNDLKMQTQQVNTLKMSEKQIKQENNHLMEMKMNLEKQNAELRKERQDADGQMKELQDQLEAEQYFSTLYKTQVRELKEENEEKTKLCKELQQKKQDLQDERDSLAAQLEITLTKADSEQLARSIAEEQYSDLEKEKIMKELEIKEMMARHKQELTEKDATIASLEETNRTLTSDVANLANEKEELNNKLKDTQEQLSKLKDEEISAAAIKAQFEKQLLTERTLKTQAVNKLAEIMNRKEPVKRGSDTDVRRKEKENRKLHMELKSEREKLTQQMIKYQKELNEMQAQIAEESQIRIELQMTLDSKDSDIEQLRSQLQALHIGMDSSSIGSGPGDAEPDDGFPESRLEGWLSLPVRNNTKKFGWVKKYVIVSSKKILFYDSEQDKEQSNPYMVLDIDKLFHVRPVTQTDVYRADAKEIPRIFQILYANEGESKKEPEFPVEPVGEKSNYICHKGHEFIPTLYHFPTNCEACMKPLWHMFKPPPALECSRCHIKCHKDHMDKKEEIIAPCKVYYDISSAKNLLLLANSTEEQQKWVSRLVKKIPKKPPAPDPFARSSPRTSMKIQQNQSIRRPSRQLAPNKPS
# Protocol: Full length rat ROCK1 and ROCK2 proteins were isolated from various tumor cell lines or tissues by immunoabsorption to 24-well microtiter plates pre-coated with antibodies specific for each isozyme. Reactions were initiated by the addition of S6 kinase substrate peptide, [γ33P]ATP, and study drug, and incubated at 37° C. for 20 minutes. Reactions were terminated by addition of phosphoric acid and the radioactivity was quantified using standard methods.
# [7] = Metabolite exposure quantified in clinical trials of the belumosudil development program; type: in vivo, human; conditions: clinical trials across the belumosudil development program
# [8] = arithmetic mean (standard deviation), Part 1, belumosudil after oral 200-mg tablet
# [9] = arithmetic mean (standard deviation), Part 1, oral 200-mg tablet vs IV microtracer
# [10] = geometric mean (geometric CV %), Part 1, belumosudil after oral 200-mg tablet
# [11] = geometric mean (geometric CV %), Part 1, oral 200-mg tablet vs IV microtracer
# cytochrome P450 CYP3A4, sequence (P08684 whole entry): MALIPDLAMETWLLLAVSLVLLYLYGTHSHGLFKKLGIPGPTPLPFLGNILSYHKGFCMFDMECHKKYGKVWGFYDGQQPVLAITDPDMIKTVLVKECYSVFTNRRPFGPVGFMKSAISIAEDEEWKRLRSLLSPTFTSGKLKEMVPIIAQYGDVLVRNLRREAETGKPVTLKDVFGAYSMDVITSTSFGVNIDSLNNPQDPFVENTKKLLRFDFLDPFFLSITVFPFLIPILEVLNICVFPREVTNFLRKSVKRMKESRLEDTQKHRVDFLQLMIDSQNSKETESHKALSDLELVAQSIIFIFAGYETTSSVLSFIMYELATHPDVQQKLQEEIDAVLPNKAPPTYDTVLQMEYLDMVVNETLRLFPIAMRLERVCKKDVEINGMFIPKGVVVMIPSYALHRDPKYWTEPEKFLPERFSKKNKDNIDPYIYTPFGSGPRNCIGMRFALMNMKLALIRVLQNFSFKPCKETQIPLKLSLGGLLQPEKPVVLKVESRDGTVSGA
smiles,measurement,setting,value
"CC(C)NC(=O)COc1cccc(-c2nc(Nc3ccc4[nH]ncc4c3)c3ccccc3n2)c1 [Belumosudil, 2-{3-[4-(1H-indazol-5-ylamino)-2-quinazolinyl]phenoxy}-N-(propan-2-yl) acetamide]",pH dependence of solubility,[1],pH dependent
same,enzyme dependence of metabolism,[2],primarily dependent on cytochrome P450 CYP3A4 activity
same,"laboratory, vital sign, electrocardiogram, physical examination findings",[3]; either part of the study,"No clinically significant laboratory, vital sign, electrocardiogram, or physical examination findings"
same,"deaths, serious AEs, severe AEs, AEs leading to withdrawal","[3]; healthy male subjects, both parts of the study","no deaths, serious AEs, AEs of severe intensity, or AEs leading to subject withdrawal"
same,treatment-emergent AE,"[3]; part 1, 200-mg tablet followed by [14C]-belumosudil microtracer infusion, one event, resolved spontaneously 2.5 hours after onset","mild, possibly related rash"
same,treatment-emergent AEs,"[3]; part 2, 200-mg [14C]-belumosudil capsule",no treatment-emergent AEs were reported
same,"% ROI, feces (mean % contribution to total sample radioactivity)",[4],(29.60) %
same,"% ROI, feces (mean % contribution to total sample radioactivity)",[4]; listed as belumosudil,30%
same,"% ROI, plasma (mean % contribution to total plasma radioactivity)",[4],P6 (64.17) %
same,"% ROI, plasma (mean % contribution to total plasma radioactivity)",[4]; listed as belumosudil,64%
same,time at which peak belumosudil concentrations were reached after the oral dose,"[5]; Part 1, oral 200-mg tablet",3 h
same,AUCextrap,[5]; [8],2.18 (0.919) %
same,AUCinf,[5]; [8],8890 (4240) ng or ng equiv × h/mL
same,AUClast,[5]; [8],8730 (4270) ng or ng equiv × h/mL
same,Clearanance (apparent clearance),[5]; [8],423 (126) mL/min
same,Cmax,[5]; [8],1960 (649) ng or ng equiv/mL
same,"F, AUCinf (absolute bioavailability)",[5]; [9],64.5 (10.4) %
same,"F, Cmax (bioavailability)",[5]; [9],23.8 (2.21) %
same,AUCextrap,[5]; [10],1.95 (64.6); %
same,AUCinf,[5]; [10],8300 (40.2); ng or ng equiv × h/mL
same,AUClast,[5]; [10],8120 (41.2); ng or ng equiv × h/mL
same,Clearanance (apparent clearance),[5]; [10],402 (40.2); mL/min
same,Cmax,[5]; [10],1870 (36.7); ng or ng equiv/mL
same,"F, Cmax (bioavailability)",[5]; [11],23.7(9.3); %
same,"F, AUCinf (absolute bioavailability, AUCinf,oral/AUCinf,IV)",[5]; [11],63.7 (17.3); %
same,"F, AUCinf (absolute bioavailability, AUCinf,oral/AUCinf,IV)","[5]; geometric mean (geometric CV %), Part 1, oral 200-mg tablet vs IV microtracer, listed as belumosudil",63.7%
same,half-life,"[5]; male, human, plasma, other: intravenous and oral, IV and oral dosing comparable, read-out: half-life values following IV and oral dosing",5 to 6 h
same,Tmax,"[5]; male, human, plasma, po, 200 mg",2 h
same,half-life,"[5]; male, human, plasma, po, 200 mg, arithmetic mean (standard deviation), Part 1, belumosudil after oral 200-mg tablet, read-out: T1/2 (converted)",6.05 h
same,half-life,"[5]; male, human, plasma, po, 200 mg, geometric mean (geometric CV %), Part 1, belumosudil after oral 200-mg tablet, read-out: T1/2 (terminal half-life) (converted)",5.3 h
same,Ki,[6],40 ± 5 nM
"NC(=O)COc1cccc(-c2nc(Nc3ccc4[nH]ncc4c3)c3ccccc3n2)c1 [KD025m1, 2-(3-(4-(1H-indazol-5-ylamino)quinazolin-2-yl)phenoxy)acetamide]",exposure relative to the parent,[7],< 5%
same,Ki,[6],55 ± 2 nM
same,inhibition of ROCK2 (Ki) relative to belumosudil,[6]; fold lower inhibition than belumosudil,comparable
